# Measured values from patent publication US7432089B2, “DNA encoding favin-adenine-dinucleotide-dependent-D-erythronate-4-phosphate-de-hydrogenase, pdxR, and microbial production of vitamin B6” (DSM IP Assets B.V., priority 2002, dated 2008).
# Columns and labels:
# [1] = system: PdxR; experiment: Substrate specificity of PdxR (DCIP reduction, A600); format: biochemical, S. meliloti
# Procedure: Substrate specificity of PdxR was examined using the finally purified enzyme solution prepared in Example 2[C] (1). The standard enzyme assay was performed as follows: the basal reaction mixture (total volume 150 μl) consisting of 33 mM potassium phosphate buffer (pH 7.0), 2.4 μg proteins, 0.091 mM DCIP, and water up to a total volume of 144 μl, and was incubated for 1 minute at room temperature (21° C.). […]. The decrease in A600 was monitored at 21° C. for 1 minute for EN4P dehydrogenase read with a UV-VIS recording spectrophotometer UV 2200. One unit of the enzyme activity was defined as the amount of enzyme reduced 1 nmol of DCIP for 1 minute under the action of EN4P dehydrogenase in the assay system described above.
# [2] = system: S. meliloti 16C18; experiment: Growth of vitamin B6-deficient mutant on supplemented EMM plate; format: cell-based, Sinorhizobium meliloti
# Procedure: These colonies were streaked on LBMC plates containing same antibiotics and incubated for 2 days at 30° C. The cells grown on the plates were inoculated on vitamin B6 assay plates (Table 1) containing Saccharomyces carlsbergensis ATCC 9080 as a vitamin B6 indicator strain. After incubation for 2 days at 30° C., one colony that had no halo of Saccharomyces carlsbergensis ATCC 9080 was obtained. The strain was named as S. meliloti 16C18. […] Further, S. meliloti 16C18 grew on EMM plate which was supplemented with 4 mg/L of 4-HT or 400 μg/L of PN.
# [3] = system: CFE of S. meliloti 16C18; experiment: EN4P dehydrogenase activity with an electron acceptor in cell-free extract (color change); format: biochemical; conditions: 21° C.
# Procedure: (§1) The frozen cells were thawed slowly, suspended with 200 ml of 10 mM Tris-HCl buffer, pH 7.5. The suspension was passed through a French pressure cell at 800 kg/cm^2. The homogenate was centrifuged to remove the cell debris at 37,000×g for 90 minutes and then each 165 ml of supernatants was used as cell-free extract (CFE) and the protein contents in S. meliloti 16C18 and S. meliloti 16C18/pVK-pdxR were 5,030 and 5,042 mg, respectively.
# (§2) EN4P dehydrogenase activity with NAD^+ or NADP^+ in CFE was determined by the formation of NADH or NADPH, which absorbs at 340 nm. Reaction mixture (150 μl) for assaying EN4P dehydrogenase activity contained 33 mM potassium phosphate buffer, pH 7.0, 2.3 mM EN4P, 1 mM NAD^+ or NADP^+, and CFE prepared from cells of S. meliloti 16C18 or S. meliloti 16C18/pVK-pdxR (each 0.16 mg protein). The increase of A340 was monitored at room temperature (21° C.) for 1 min in a UV-VIS recording spectrophotometer UV 2200 (Shimadzu Instruments, Inc., Kyoto, Japan), but the increase of A340 was not observed in enzyme reaction mixtures with any CFEs. Therefore, the both CFEs were determined to have no NAD^+ or NADP^+ dependent EN4P dehydrogenase activity. EN4P dehydrogenase activity with an electron acceptor in CFE was examined at room temperature (21° C.) by color change due to formation of reduced form from oxidized form of an electron acceptor. Reaction mixture (150 μl) contained 33 mM potassium phosphate buffer, pH 7.0, 2.3 mM EN4P, CFE (0.16 mg protein), and an electron acceptor such as 2,6-dichlorophenolindophenol (0.091 mM) (Wako Pure chemical Industries, Ltd., Osaka, Japan) (referred to as DCIP hereinafter) or ferricyanide (1.3 mM) (Wako Pure chemical Industries, Ltd., Osaka, Japan). […]
# [4] = system: pdxR gene product in CFE of S. meliloti 16C18/pVK-pdxR; experiment: as above; format: biochemical; conditions: 21° C.
# Procedure: as §1, §2
# [5] = system: purified PdxR treated with ammonium sulfate; experiment: Effect of flavin on discoloration of DCIP in reaction mixture; format: biochemical, S. meliloti
# Procedure: To characterize a flavin binding to PdxR protein, ammonium sulfate fractionation was applied in the finally purified enzyme solution prepared in Example 2[C] (1) according to a method of Cammack [Biochem. J. 109:45-46 (1968)]. The enzyme solution (1 ml, containing 4.74 mg proteins) was dialyzed overnight against 1 liter of 80% (w/v) ammonium sulfate solution and its resultant precipitate in a dialysis membrane was collected by centrifugation at 34,800×g for 30 min, dissolved in 0.5 ml of 10 mM Tris-HCl, pH 7.5, and dialyzed overnight against 4 liters of the same buffer. The volume of dialyzed enzyme solution was brought to 1 ml with 10 mM Tris-HCl, pH 7.5.
# The degree of discoloration was judged at 3 minutes.
# [6] = system: EN4P dehydrogenase in CFE of S. meliloti 16C18 or S. meliloti 16C18/pVK-pdxR; experiment: EN4P dehydrogenase activity with NAD+ or NADP+ in CFE (increase of A340); format: biochemical; conditions: 1 mM coenzyme, 2.3 mM EN4P, any CFE, 21° C., 1 min
# Procedure: as §2
# [7] = system: EN4P dehydrogenase; experiment: Cytochrome c as electron acceptor of EN4P dehydrogenase (absorption spectra 400-600 nm); format: biochemical, S. meliloti; conditions: 80 μM oxidized cytochrome c, 2.3 mM EN4P, CFE, 21° C., 2-20 min
# Sequence of EN4P dehydrogenase (as listed by the source): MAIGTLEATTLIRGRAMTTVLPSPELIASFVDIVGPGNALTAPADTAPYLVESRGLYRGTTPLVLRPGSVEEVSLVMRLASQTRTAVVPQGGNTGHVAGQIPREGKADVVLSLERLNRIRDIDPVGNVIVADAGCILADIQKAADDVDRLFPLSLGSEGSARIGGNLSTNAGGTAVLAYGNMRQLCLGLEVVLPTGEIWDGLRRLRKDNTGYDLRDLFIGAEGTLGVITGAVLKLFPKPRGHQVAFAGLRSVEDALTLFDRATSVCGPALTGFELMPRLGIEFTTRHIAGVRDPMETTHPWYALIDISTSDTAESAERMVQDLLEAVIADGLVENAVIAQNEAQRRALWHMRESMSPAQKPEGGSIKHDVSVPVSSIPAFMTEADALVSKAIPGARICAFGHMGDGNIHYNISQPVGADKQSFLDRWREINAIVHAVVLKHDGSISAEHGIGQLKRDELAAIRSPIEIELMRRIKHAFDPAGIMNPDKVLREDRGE
# Procedure: Furthermore, possibility of cytochrome c instead of DCIP or ferricyanide in above-mentioned enzyme reaction system of EN4P dehydrogenase with an electron acceptor was examined by measuring change of absorption spectra in 400-600 nm spectral regions due to formation of reduced form from oxidized form of cytochrome c at room temperature (21° C.). Reaction mixture (150 μl) contained 33 mM potassium phosphate buffer, pH 7.0, 2.3 mM EN4P, 80 μM oxidized form of cytochrome c (from equine heart, Sigma Chemical Co.) as an electron acceptor, and CPE (0.16 mg protein). Absorption spectra of the reaction mixture of zero time and after 2, 5, 10, 15 and 20 min at room temperature (21° C.) were monitored with a UV-VIS recording spectrophotometer UV 2200. The absorption spectrum of zero time had only a broad peak at 525 nm, but spectra after 2 min appeared a new peak at 550 nm corresponding to reduced form of cytochrome c, and the absorption in the 550 nm region after 5, 10, 15 and 20 min was increased with time course.
# [8] = substrate 2.28 mM, 0.091 mM DCIP, pH 7.0, 21° C.
molecule,measurement,setting,value
"CC(O)C(=O)O (racemic) [D,L-lactate]",Activity (nmol/min/mg protein),[1]; pH 7,0 nmol/min/mg protein
"N[C@H](C(=O)O)[C@H](O)CO [4-HT, 4-hydroxy-L-threonine]",Growth of S. meliloti 16C18 on supplemented EMM plate,[2]; EMM plate supplemented with 4 mg/L of 4-HT,grew
O=C(O)[C@H](O)CO [D(+) glyceric acid],Activity (nmol/min/mg protein),[1]; [8],0 nmol/min/mg protein
"O=C(O)CC(C(=O)O)C(O)C(=O)O [D,L-isocitrate]",Activity (nmol/min/mg protein),[1]; [8],0 nmol/min/mg protein
O=C(O)[C@H](O)COP(=O)(O)O [D-(−)-glyceric acid 3-phosphate],Activity (nmol/min/mg protein),[1]; [8],0 nmol/min/mg protein
O=C(O)[C@H](O)[C@H](O)CO [D-erythronate],Activity (nmol/min/mg protein),[1]; pH 7,0 nmol/min/mg protein
"O=C1C=CC(=Nc2cc(Cl)c(O)c(Cl)c2)C=C1 [DCIP, 2,6-dichlorophenolindophenol]",Color change of electron acceptor in reaction mixture,"[3]; CFE of S. meliloti 16C18, + EN4P (2.3 mM)",No change
same,Color change of electron acceptor in reaction mixture,"[3]; CFE of S. meliloti 16C18, − EN4P",No change
same,Color change of electron acceptor in reaction mixture,[4],No change
"O=C(O)[C@H](O)[C@H](O)COP(=O)(O)O [EN4P, D-erythronate 4-phosphate]",Oxidation by PdxR,"[1]; substrate 2.28 mM, 0.091 mM DCIP",oxidized
same,Activity (nmol/min/mg protein),[1]; [8],946 nmol/min/mg protein
"Cc1cc2nc3c(=O)[nH]c(=O)nc-3n(C[C@H](O)[C@H](O)[C@H](O)COP(=O)(O)OP(=O)(O)OC[C@H]3O[C@@H](n4cnc5c(N)ncnc54)[C@H](O)[C@@H]3O)c2cc1C [FAD, flavin adenine dinucleotide]",Flavin concentration at which discoloration of DCIP occurred,"[5]; judged at 3 minutes, 21° C.",greater than 0.014 μM
"Cc1cc2nc3c(=O)[nH]c(=O)nc-3n(C[C@H](O)[C@H](O)[C@H](O)COP(=O)(O)O)c2cc1C [FMN, flavin mononucleotide]",Discoloration of DCIP,[5]; any FMN concentrations,did not occur
C[C@H](O)C(=O)O [L-(+)-lactic acid],Activity (nmol/min/mg protein),[1]; [8],0 nmol/min/mg protein
O=C(O)C[C@H](O)C(=O)O [L-malic acid],Activity (nmol/min/mg protein),[1]; [8],0 nmol/min/mg protein
NC(=O)c1ccc[n+]([C@@H]2O[C@H](COP(=O)([O-])OP(=O)(O)OC[C@H]3O[C@@H](n4cnc5c(N)ncnc54)[C@H](OP(=O)(O)O)[C@@H]3O)[C@@H](O)[C@H]2O)c1 [NADP^+],Increase of A340 (formation of NADH or NADPH),[6],not observed
NC(=O)c1ccc[n+]([C@@H]2O[C@H](COP(=O)([O-])OP(=O)(O)OC[C@H]3O[C@@H](n4cnc5c(N)ncnc54)[C@H](O)[C@@H]3O)[C@@H](O)[C@H]2O)c1 [NAD^+],Increase of A340 (formation of NADH or NADPH),[6],not observed
"Cc1ncc(CO)c(CO)c1O [PN, pyridoxol]",Growth of S. meliloti 16C18 on supplemented EMM plate,[2]; EMM plate supplemented with 400 μg/L of PN,grew
O=C(O)CO [glycolate],Activity (nmol/min/mg protein),[1]; [8],0 nmol/min/mg protein
O=C(O)COP(=O)(O)O [glycolic acid 2-phosphate],Activity (nmol/min/mg protein),[1]; [8],0 nmol/min/mg protein
O=CC(=O)O [glyoxylate],Activity (nmol/min/mg protein),[1]; [8],0 nmol/min/mg protein
cytochrome c,Function as electron acceptor (reduced form peak at 550 nm),[7],works as electron acceptor
